Patent US20220289794A1, “SYNTHETIC ANTIMICROBIAL PEPTIDES” (priority 2019, published 2022)
Where two headings read alike, the source gives them in different places. Residues, ends and D or L forms follow the SMILES beside them.

What was measured:
[1] = tested on: Pseudomonas aeruginosa (PSA, ATCC 27883); assay: Synergy checkerboard assay (FIC index); assay type: cell-based; settings: Pseudomonas aeruginosa (ATCC 27883)
[2] = tested on: MRSA (ATCC BAA-1556); settings: MRSA (ATCC BAA-1556)
[3] = tested on: Klebsiella pneumoniae (KPC, ATCC BAA-1705); settings: ATCC BAA-1705
[4] = tested on: Escherichia coli (E. Coli, ATCC 25922); settings: ATCC 25922
[5] = tested on: Klebsiella pneumoniae (KPC, ATCC BAA-1705); settings: Klebsiella pneumoniae (ATCC BAA-1705)
[6] = tested on: Escherichia coli (E. Coli, ATCC 25922); settings: Escherichia coli (ATCC 25922)
[7] = tested on: Methicillin-resistant Staphylococcus aureus MRSA (ATCC BAA-1556); settings: ATCC BAA-1556
[8] = tested on: Pseudomonas aeruginosa (PSA, ATCC 27883); settings: ATCC 27883
[9] = assay type: in vivo; settings: for Average Body Weight / Average Body Weight Growth Rate: Female (M40~M42)
Experimental: In-vivo toxicity study of IFX301. 1. Dose formulations were prepared freshly on dosing day. Doses started from the low to high levels and staggered with 4 h up to 24 h between doses with animals. A dose was escalated or decreased if the test compound appears to be generally tolerated well or not. The cage side observation was done twice daily. The clinical observation was conducted prior to randomization and dosing daily thereafter (at least hourly for the first 4 hours after dosing) and prior to termination for mortality, morbidity check, and clinical signs. Bodyweight was monitored prior to randomization and dosing, daily thereafter, and prior to termination. Gross necropsy was done for all scheduled animals on day 8. Full gross necropsy was conducted, this includes a macroscopic examination of the external surface of the body, all orifices, cranial cavity, the external surface of the brain and cut surfaces of the spinal cord, and the cranial, thoracic, abdominal and pelvic cavities and their viscera, cervical areas, carcass, and genitalia; The animal identification and selected tissues (sex appropriate) identified in Table 38 were sampled and preserved in 10% neutral buffered formalin (NBF). For unscheduled animals (found dead and moribund sacrificed animals): gross necropsy was conducted, and tissues were preserved for possible histology to determine the cause of death. Histopathology was done for adrenal glands, brain, cecum, colon, duodenum, heart, ileum, jejunum, kidneys, liver, rectum, spleen, stomach, thymus lung, pancreas and the testis (ovaries); total 16 tissues/mouse.

[10] = peptide part of FIC antibiotic/peptides, in combination with antibiotic
[11] = Table 25, peptide in combination with antibiotics
[12] = Average, ICR mice, IP, 25 mg/kg, Male (M49~M51)
[13] = Average, ICR mice, IP, 50 mg/kg, Male (M43~M45)
[14] = Female ICR mice, MTD study, IP route, 10 mg/kg & 5 mL/kg, M40~M42
[15] = Female ICR mice, MTD study, IP route, 25 mg/kg & 5 mL/kg, M52~M54
[16] = Female ICR mice, MTD study, IP route, 50 mg/kg & 5 mL/kg, M46~M48

N=C(N)NCCC[C@@H]1NC(=O)[C@H](CCCNC(=N)N)NC(=O)[C@H](CCCNC(=N)N)NC(=O)[C@H](CCCNC(=N)N)NC(=O)[C@H](Cc2c[nH]c3ccccc23)NC(=O)[C@H](Cc2c[nH]c3ccccc23)NC(=O)[C@H](Cc2c[nH]c3ccccc23)NC(=O)[C@H](Cc2c[nH]c3ccccc23)NC(=O)[C@H](CCCNC(=N)N)NC(=O)[C@H](CCCNC(=N)N)NC1=O [IFX-318, [R6W4]] (cyclo(RRRRRRWWWW))
FIC peptides [1, 10]: FIC = 4 ug/ml
FIC peptides [2, 10]: FIC = 2 μg/ml
Klebsiella pneumoniae (ATCC BAA-1705) MIC [3]: 64 µg/mL
Escherichia coli (ATCC 25922) MIC [4]: 32 µg/mL
FIC peptides [5, 10]: FIC = 16 μg/ml
FIC peptides [6, 10]: FIC = 8 μg/ml

N=C(N)NCCC[C@@H]1NC(=O)[C@H](CCCNC(=N)N)NC(=O)[C@H](CCCNC(=N)N)NC(=O)[C@H](Cc2c[nH]c3ccccc23)NC(=O)[C@H](Cc2c[nH]c3ccccc23)NC(=O)[C@H](Cc2c[nH]c3ccccc23)NC(=O)[C@H](Cc2c[nH]c3ccccc23)NC(=O)[C@H](CCCNC(=N)N)NC(=O)[C@H](CCCNC(=N)N)NC1=O [IFX-301, [R5W4]]
MIC (peptide) ([1]; Table 25, peptide alone): MIC = 32 ug/ml
FIC (peptide) [1, 11]: FIC = 8 ug/ml
MRSA (ATCC BAA-1556) MIC [7]: 4 µg/mL
MIC (peptide) ([2]; Table 25, peptide alone): MIC = 4 ug/ml
FIC (peptide) [2, 11]: FIC = 1 ug/ml
Pseudomonas aeruginosa (ATCC 27883) MIC [8]: 32 µg/mL
MIC (peptide) ([5]; Table 25, peptide alone): MIC = 32 ug/ml
FIC (peptide) [5, 11]: FIC = 8 ug/ml
Adrenal glands/Body Coefficient [9, 12]: 0.03%
Heart/Body Coefficient [9, 12]: 0.57%
Kidneys/Body Coefficient [9, 12]: 2.15%
Liver/Body Coefficient [9, 12]: 8.64%
Lung/Body Coefficient [9, 12]: 1.00%
Spleen/Body Coefficient [9, 12]: 0.46%
Testes/Body Coefficient [9, 12]: 0.62%
Thymus/Body Coefficient [9, 12]: 0.31%
Heart/Body Coefficient [9, 13]: 0.49%
Kidneys/Body Coefficient [9, 13]: 2.06%
Liver/Body Coefficient [9, 13]: 8.27%
Lung/Body Coefficient [9, 13]: 0.72%
Spleen/Body Coefficient [9, 13]: 0.68%
Testes/Body Coefficient [9, 13]: 0.69%
Thymus/Body Coefficient [9, 13]: 0.25%
Adrenal glands/Body Coefficient [9, 14]: 0.04%
Average Body Weight before Necropsy [9, 14]: 25 g
Brain/Body Coefficient [9, 14]: 1.77%
Heart/Body Coefficient [9, 14]: 0.51%
Kidneys/Body Coefficient [9, 14]: 1.46%
Liver/Body Coefficient [9, 14]: 6.51%
Lung/Body Coefficient [9, 14]: 0.89%
Ovaries/Body Coefficient [9, 14]: 0.08%
Spleen/Body Coefficient [9, 14]: 0.60%
Thymus/Body Coefficient [9, 14]: 0.48%
Adrenal glands/Body Coefficient [9, 15]: 0.05%
Average Body Weight before Necropsy [9, 15]: 23 g
Heart/Body Coefficient [9, 15]: 0.53%
Kidneys/Body Coefficient [9, 15]: 1.73%
Liver/Body Coefficient [9, 15]: 7.85%
Lung/Body Coefficient [9, 15]: 1.13%
Ovaries/Body Coefficient [9, 15]: 0.09%
Spleen/Body Coefficient [9, 15]: 0.64%
Thymus/Body Coefficient [9, 15]: 0.49%
Adrenal glands/Body Coefficient [9, 16]: 0.03%
Average Body Weight before Necropsy [9, 16]: 21 g
Heart/Body Coefficient [9, 16]: 0.49%
Kidneys/Body Coefficient [9, 16]: 1.84%
Liver/Body Coefficient [9, 16]: 7.82%
Lung/Body Coefficient [9, 16]: 0.75%
Ovaries/Body Coefficient [9, 16]: 0.08%
Spleen/Body Coefficient [9, 16]: 0.81%
Thymus/Body Coefficient [9, 16]: 0.35%
Average Body Weight ([9]; ICR mice, IP, 10 mg/kg, Day 1): 21 g
Average Body Weight ([9]; ICR mice, IP, 10 mg/kg, Day 2): 21 g
Average Body Weight Growth Rate ([9]; ICR mice, IP, 10 mg/kg, Day 2): 3.23%
Average Body Weight ([9]; ICR mice, IP, 10 mg/kg, Day 3): 22 g
Average Body Weight Growth Rate ([9]; ICR mice, IP, 10 mg/kg, Day 3): 4.84%
Average Body Weight ([9]; ICR mice, IP, 10 mg/kg, Day 4): 23 g
Average Body Weight Growth Rate ([9]; ICR mice, IP, 10 mg/kg, Day 4): 11.29%
Average Body Weight ([9]; ICR mice, IP, 10 mg/kg, Day 5): 24 g
Average Body Weight Growth Rate ([9]; ICR mice, IP, 10 mg/kg, Day 5): 16.13%
Average Body Weight ([9]; ICR mice, IP, 10 mg/kg, Day 6): 24 g
Average Body Weight Growth Rate ([9]; ICR mice, IP, 10 mg/kg, Day 6): 16.13%
Average Body Weight ([9]; ICR mice, IP, 10 mg/kg, Day 7): 24 g
Average Body Weight Growth Rate ([9]; ICR mice, IP, 10 mg/kg, Day 7): 17.74%
Average Body Weight ([9]; ICR mice, IP, 10 mg/kg, Day 8): 25 g
Average Body Weight Growth Rate ([9]; ICR mice, IP, 10 mg/kg, Day 8): 20.97%
clinical observation ([9]; mouse, in vivo): did not show any abnormalities
Average Body Weight before Necropsy ([9]; mouse, in vivo, ip, 10 mg/kg): 27 g
Average Body Weight before Necropsy ([9]; mouse, in vivo, ip, 25 mg/kg): 26 g
Average Body Weight before Necropsy ([9]; mouse, in vivo, ip, 50 mg/kg): 26 g
MIC (peptide) ([6]; Table 25, peptide alone): MIC = 16 ug/ml
FIC (peptide) [6, 11]: FIC = 4 ug/ml
